The values that follow come from US6355638B1, “Pyrazolo[1,5-d][1,2,4] triazines for enhancing cognition” (Merck Sharp & Dohme Ltd., priority 1999, dated 2002).

Usually melting point stands for the temperature of the solid-liquid transition.

Settings in one series: not given
For `Cc1cc(-c2nncc3c(-c4ccccc4)c(OCc4ncn(C)n4)nn23)no1`, the melting point lay within 194 to 196 °C.
`Cc1cc(-c2nncc3c(C(C)(C)C)c(OCc4ncn(C)n4)nn23)no1` registered a melting point of 161 to 164 °C.
Same read-out and setting: for `Cc1cc(-c2nncc3c(C(C)(C)C)c(OCc4ccccn4)nn23)no1` the value was 175 to 178 °C; for `Cc1cc(-c2nncc3c(C(C)(C)C)c(OCc4cccnc4)nn23)no1`, 139 to 141 °C.
The same measure, in the same setting: then `Cc1cc(-c2nncc3c(C(C)(C)C)c(OCc4ccncc4)nn23)no1`, with 119 to 121 °C.
`Cc1cc(-c2nncc3c(Br)c(OCc4ncnn4C)nn23)no1`: the melting point fell in the range of 239 to 241 °C.
As for `Cc1cc(-c2nncc3c(-c4ccco4)c(OCc4ncnn4C)nn23)no1`, the melting point is 226 to 228 °C.

The conditions of a further series: reported in Psychobiology, 21:101-108; cited from earlier work.
With `COC(=O)c1cc2c(cn1)[nH]c1ccccc12` [β-CCM], the “spatial learning in the Morris watermaze” value is given as “enhanced spatial learning”.

For the next series the following is noted: background statement; cited from earlier work.
On to `COC(=O)c1cc2c(cn1)[nH]c1ccccc12` [β-CCM], for which the proconvulsant activity result is recorded as “proconvulsant”.
